Reference: the supplement of paper PMC9663587

What was measured:
[1] = compound: CCc1cnn2c(NCc3ccc[n+]([O-])c3)cc(N3CCCC[C@H]3CCO)nc12; test: increase in dead-cell fraction, 72 h; higher = more death;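 note: breast cancer cell lines in 384-well plates, stained with Hoechst plus LIVE/DEAD far red dye and imaged, cells above an LDR intensity threshold counted dead, Hoechst-negative corpses included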
[2] = compound: CN(C)C(=O)c1cc2cnc(Nc3ccc(N4CCNCC4)cn3)nc2n1C1CCCC1 [LEE011/Ribociclib]; test: as above
[3] = compound: CC(=O)c1c(C)c2cnc(Nc3ccc(N4CCN(CCOCCOCCOCCNC(=O)COc5cccc6c5C(=O)N(C5CCC(=O)NC5=O)C6=O)CC4)cn3)nc2n(C2CCCC2)c1=O [BSJ-03-123]; test: as above
[4] = compound: CC(=O)c1c(C)c2cnc(Nc3ccc(N4CCNCC4)cn3)nc2n(C2CCCC2)c1=O; test: as above
[5] = compound: CCN1CCN(Cc2ccc(Nc3ncc(F)c(-c4cc(F)c5nc(C)n(C(C)C)c5c4)n3)nc2)CC1; test: as above
[6] = compound: CN1CC[C@H](c2c(O)cc(O)c3c(=O)cc(-c4ccccc4Cl)oc23)[C@H](O)C1 [Flavopiridol]; test: as above
[7] = compound: CN(C)C/C=C/C(=O)Nc1ccc(C(=O)Nc2cccc(Nc3ncc(Cl)c(-c4c[nH]c5ccccc45)n3)c2)cc1 [THZ1]; test: as above
[8] = compound: CCOc1cc2ncc(C#N)c(Nc3ccc(OCc4ccccn4)c(Cl)c3)c2cc1NC(=O)/C=C/CN(C)C [Neratinib/HKI272]; test: as above
[9] = compound: CNC(=O)c1cccc(-c2ccc3c(N4CCOC[C@@H]4C)nc(N4CCOC[C@@H]4C)nc3n2)c1 [AZD2014]
[10] = compound: CN(C)C/C=C/C(=O)Nc1ccc(O[C@@H]2CCC[C@@H](Nc3ncc(Cl)c(-c4c[nH]c5ccccc45)n3)C2)cc1 [BSJ-01-175]
[11] = compound: O=C1NC(=O)[C@@H](c2cn3c4c(cccc24)CCC3)[C@@H]1c1c[nH]c2ccccc12 [Tivantinib/ARQ197]
[12] = compound: NC(=O)Nc1cc(-c2cccc(F)c2)sc1C(=O)N[C@H]1CCCNC1 [AZD7762]
[13] = compound: CCC1=CN=CN=C1N2CCN(CC2)CC3=NC4=C(N3)C=C(C=C4)C(F)(F)F
[14] = compound: O=C(CCCCCCC(=O)Nc1ccccc1)NO [Vorinostat]
[15] = compound: CCN1CCN(Cc2ccc(Nc3ncc(F)c(-c4cc(F)c5nc(C)n(C(C)C)c5c4)n3)nc2)CC1
[16] = compound: CC(C)NC[C@@H](C(=O)N1CCN(c2ncnc3c2[C@H](C)C[C@H]3O)CC1)c1ccc(Cl)cc1 [Ipatasertib/GDC0068]
[17] = compound: CC(=O)Nc1cccc(-n2c(=O)n(C3CC3)c(=O)c3c(Nc4ccc(I)cc4F)n(C)c(=O)c(C)c32)c1
[18] = compound: COc1ccc2c(c1)[C@]1(C[C@H]1c1ccc3c(/C=C/c4ccc(CN5C[C@@H](C)O[C@@H](C)C5)cc4)n[nH]c3c1)C(=O)N2
[19] = compound: C[C@@H]1COCCN1c1cc(C2([S@](C)(=N)=O)CC2)nc(-c2cc[nH]c3nccc2-3)n1 [AZD6738]
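Throughout, for GR50, 72 h: breast cancer and non-malignant breast epithelial cell lines, Deep Dye Drop or Dye Drop imaging, nine half-log doses, GR normalized to time-zero plates and DMSO-only controls.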

## MDAMB175VII
[1]; 0.0001 µM
  increase in dead-cell fraction: -0.004
[1]; 0.0003162 µM
  increase in dead-cell fraction: -0.0015
[1]; 0.001 µM
  increase in dead-cell fraction: -0.0018
[1]; 0.003162 µM
  increase in dead-cell fraction: -0.0039
[1]; 0.01 µM
  increase in dead-cell fraction: 0.001
[1]; 0.03162 µM
  increase in dead-cell fraction: 0.116
[1]; 0.1 µM
  increase in dead-cell fraction: 0.0618
[1]; 0.3162 µM
  increase in dead-cell fraction: 0.0494
[1]; 1 µM
  increase in dead-cell fraction: 0.0562
[2]; 0.001 µM
  increase in dead-cell fraction: 0.0066
[2]; 0.003162 µM
  increase in dead-cell fraction: 0.0124
[2]; 0.01 µM
  increase in dead-cell fraction: 0.0047
[2]; 0.03162 µM
  increase in dead-cell fraction: 0.0118
[2]; 0.1 µM
  increase in dead-cell fraction: 0.0182
[2]; 0.3162 µM
  increase in dead-cell fraction: 0.0102
[2]; 1 µM
  increase in dead-cell fraction: 0.0154
[2]; 3.162 µM
  increase in dead-cell fraction: 0.0181
[2]; 10 µM
  increase in dead-cell fraction: 0.0148
[3]; 0.001 µM
  increase in dead-cell fraction: 0.0049
[3]; 0.003162 µM
  increase in dead-cell fraction: 0.0003
[3]; 0.01 µM
  increase in dead-cell fraction: 0.0001
[3]; 0.03162 µM
  increase in dead-cell fraction: 0.0082
[3]; 0.1 µM
  increase in dead-cell fraction: 0.0009
[3]; 0.3162 µM
  increase in dead-cell fraction: 0.0035
[3]; 1 µM
  increase in dead-cell fraction: 0.0093
[3]; 3.162 µM
  increase in dead-cell fraction: 0.009
[3]; 10 µM
  increase in dead-cell fraction: 0.0139
[4]; 0.0003162 µM
  increase in dead-cell fraction: 0.0035
[4]; 0.001 µM
  increase in dead-cell fraction: 0.0034
[4]; 0.003162 µM
  increase in dead-cell fraction: -0.0018
[4]; 0.01 µM
  increase in dead-cell fraction: 0.0077
[4]; 0.03162 µM
  increase in dead-cell fraction: 0.0116
[4]; 0.1 µM
  increase in dead-cell fraction: 0.0214
[4]; 0.3162 µM
  increase in dead-cell fraction: 0.0115
[4]; 1 µM
  increase in dead-cell fraction: 0.0097
[4]; 3.162 µM
  increase in dead-cell fraction: 0.0212
[5]; 0.001 µM
  increase in dead-cell fraction: -0.0013
[5]; 0.003162 µM
  increase in dead-cell fraction: -0.0015
[5]; 0.01 µM
  increase in dead-cell fraction: 0.0094
[5]; 0.03162 µM
  increase in dead-cell fraction: 0.0188
[5]; 0.1 µM
  increase in dead-cell fraction: 0.0085
[5]; 0.3162 µM
  increase in dead-cell fraction: 0.013
[5]; 1 µM
  increase in dead-cell fraction: 0.0044
[5]; 3.162 µM
  increase in dead-cell fraction: 0.0131
[5]; 10 µM
  increase in dead-cell fraction: 0.0317
[6]; 0.0001 µM
  increase in dead-cell fraction: -0.0018
[6]; 0.0003162 µM
  increase in dead-cell fraction: -0.0019
[6]; 0.001 µM
  increase in dead-cell fraction: 0.0003
[6]; 0.003162 µM
  increase in dead-cell fraction: 0.0018
[6]; 0.01 µM
  increase in dead-cell fraction: 0.0067
[6]; 0.03162 µM
  increase in dead-cell fraction: -0.0026
[6]; 0.1 µM
  increase in dead-cell fraction: 0.0081
[6]; 0.3162 µM
  increase in dead-cell fraction: 0.0294
[6]; 1 µM
  increase in dead-cell fraction: 0.0685
[7]; 0.0001 µM
  increase in dead-cell fraction: 0.0012
[7]; 0.0003162 µM
  increase in dead-cell fraction: -0.0011
[7]; 0.001 µM
  increase in dead-cell fraction: -0.0032
[7]; 0.003162 µM
  increase in dead-cell fraction: -0.0005
[7]; 0.01 µM
  increase in dead-cell fraction: 0.0034
[7]; 0.03162 µM
  increase in dead-cell fraction: 0.0153
[7]; 0.1 µM
  increase in dead-cell fraction: 0.0349
[7]; 0.3162 µM
  increase in dead-cell fraction: 0.0573
[7]; 1 µM
  increase in dead-cell fraction: 0.0912
[8]; 0.0003162 µM
  increase in dead-cell fraction: -0.0063
[8]; 0.001 µM
  increase in dead-cell fraction: -0.0069
[8]; 0.003162 µM
  increase in dead-cell fraction: 0.0132
[8]; 0.01 µM
  increase in dead-cell fraction: 0.0578
[8]; 0.03162 µM
  increase in dead-cell fraction: 0.214
[8]; 0.1 µM
  increase in dead-cell fraction: 0.276
[8]; 0.3162 µM
  increase in dead-cell fraction: 0.406
[8]; 1 µM
  increase in dead-cell fraction: 0.44
[8]; 3.162 µM
  increase in dead-cell fraction: 0.49
[9]
  GR50, 72 h: < 0.001 µM
[10]
  GR50, 72 h: 0.00586 µM
[11]
  GR50, 72 h: 0.267 µM
[12]
  GR50, 72 h: 0.0769 µM
[13]
  GR50, 72 h: 1.34 µM
[14]
  GR50, 72 h: 0.546 µM
[15]
  GR50, 72 h: 0.00292 µM
[16]
  GR50, 72 h: 0.22 µM
[17]
  GR50, 72 h: 0.00195 µM
[18]
  GR50, 72 h: 0.00391 µM
[19]
  GR50, 72 h: 8.53 µM

## EVSAT
[1]; 0.0001 µM
  increase in dead-cell fraction: -0.0004
[1]; 0.0003162 µM
  increase in dead-cell fraction: 0.0006
[1]; 0.001 µM
  increase in dead-cell fraction: 0.0006
[1]; 0.003162 µM
  increase in dead-cell fraction: -0.003
[1]; 0.01 µM
  increase in dead-cell fraction: -0.0037
[1]; 0.03162 µM
  increase in dead-cell fraction: 0.107
[2]; 0.001 µM
  increase in dead-cell fraction: 0.0012
[2]; 0.003162 µM
  increase in dead-cell fraction: 0.0024
[2]; 0.01 µM
  increase in dead-cell fraction: 0.0001
[2]; 0.03162 µM
  increase in dead-cell fraction: 0.0046
[2]; 0.1 µM
  increase in dead-cell fraction: 0.0067
[2]; 0.3162 µM
  increase in dead-cell fraction: 0.0048
[2]; 1 µM
  increase in dead-cell fraction: 0.0025
[2]; 3.162 µM
  increase in dead-cell fraction: 0.0016
[2]; 10 µM
  increase in dead-cell fraction: 0.0146
[3]; 0.001 µM
  increase in dead-cell fraction: -0.0001
[3]; 0.003162 µM
  increase in dead-cell fraction: 0.0011
[3]; 0.01 µM
  increase in dead-cell fraction: 0.0093
[3]; 0.03162 µM
  increase in dead-cell fraction: 0.0004
[3]; 0.1 µM
  increase in dead-cell fraction: 0.0074
[3]; 0.3162 µM
  increase in dead-cell fraction: -0.0005
[3]; 1 µM
  increase in dead-cell fraction: 0.0163
[3]; 3.162 µM
  increase in dead-cell fraction: 0.0309
[3]; 10 µM
  increase in dead-cell fraction: 0.221
[4]; 0.0003162 µM
  increase in dead-cell fraction: 0.0003
[4]; 0.001 µM
  increase in dead-cell fraction: -0.0039
[4]; 0.003162 µM
  increase in dead-cell fraction: -0.002
[4]; 0.01 µM
  increase in dead-cell fraction: -0.0026
[4]; 0.03162 µM
  increase in dead-cell fraction: 0.0033
[4]; 0.1 µM
  increase in dead-cell fraction: 0.0048
[4]; 0.3162 µM
  increase in dead-cell fraction: 0.0108
[4]; 1 µM
  increase in dead-cell fraction: 0.0176
[4]; 3.162 µM
  increase in dead-cell fraction: 0.0205
[5]; 0.001 µM
  increase in dead-cell fraction: -0.0003
[5]; 0.003162 µM
  increase in dead-cell fraction: -0.0008
[5]; 0.01 µM
  increase in dead-cell fraction: -0.0013
[5]; 0.03162 µM
  increase in dead-cell fraction: 0.0044
[5]; 0.1 µM
  increase in dead-cell fraction: 0.0048
[5]; 0.3162 µM
  increase in dead-cell fraction: 0.0122
[5]; 1 µM
  increase in dead-cell fraction: 0.0226
[5]; 3.162 µM
  increase in dead-cell fraction: 0.0299
[5]; 10 µM
  increase in dead-cell fraction: 0.798
[6]; 0.0001 µM
  increase in dead-cell fraction: 0
[6]; 0.0003162 µM
  increase in dead-cell fraction: -0.0027
[6]; 0.001 µM
  increase in dead-cell fraction: -0.0029
[6]; 0.003162 µM
  increase in dead-cell fraction: 0.0039
[6]; 0.01 µM
  increase in dead-cell fraction: 0.0011
[6]; 0.03162 µM
  increase in dead-cell fraction: 0.0016
[6]; 0.1 µM
  increase in dead-cell fraction: 0.0006
[6]; 0.3162 µM
  increase in dead-cell fraction: 0.0111
[6]; 1 µM
  increase in dead-cell fraction: 0.85
[7]; 0.0001 µM
  increase in dead-cell fraction: -0.0011
[7]; 0.0003162 µM
  increase in dead-cell fraction: 0.0011
[7]; 0.001 µM
  increase in dead-cell fraction: 0.0012
[7]; 0.003162 µM
  increase in dead-cell fraction: 0.0031
[7]; 0.01 µM
  increase in dead-cell fraction: 0.0078
[7]; 0.03162 µM
  increase in dead-cell fraction: 0.0292
[7]; 0.1 µM
  increase in dead-cell fraction: 0.181
[7]; 0.3162 µM
  increase in dead-cell fraction: 0.641
[8]; 0.0003162 µM
  increase in dead-cell fraction: -0.0012
[8]; 0.001 µM
  increase in dead-cell fraction: -0.002
[8]; 0.003162 µM
  increase in dead-cell fraction: -0.0011
[8]; 0.01 µM
  increase in dead-cell fraction: -0.0031
[8]; 0.03162 µM
  increase in dead-cell fraction: -0.0026
[8]; 0.1 µM
  increase in dead-cell fraction: -0.0027
[8]; 0.3162 µM
  increase in dead-cell fraction: -0.002
[8]; 1 µM
  increase in dead-cell fraction: 0.0019
[8]; 3.162 µM
  increase in dead-cell fraction: 0.0083
[9]
  GR50, 72 h: 0.00617 µM
[10]
  GR50, 72 h: 0.146 µM
[11]
  GR50, 72 h: 0.373 µM
[12]
  GR50, 72 h: 1.42 µM
[13]
  GR50, 72 h: > 10 µM
[14]
  GR50, 72 h: 2.5 µM
[15]
  GR50, 72 h: 1.25 µM
[16]
  GR50, 72 h: 0.256 µM
[17]
  GR50, 72 h: > 1 µM
[18]
  GR50, 72 h: 0.00784 µM
[19]
  GR50, 72 h: > 10 µM
